Experiments:
[1] = biological target: T1, human vasopressin V1a receptor (Homo sapiens, UniProt P37288); assay: Human vasopressin V1a receptor binding assay; details: 1321N1 cell membranes, [3H]vasopressin; read-out: Ki (nM) on hV1a cell line
How it was run: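 Radioligand competition on membranes from cells expressing human V1a receptor; incubation 60 minutes at 27° C., non-specific binding with 1.2×10^−6 M unlabeled (Arg^8)-vasopressin, filtration separation. Ki by Cheng-Prusoff using Scatchard-derived KD, from at least two independent experiments.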

[2] = biological target: T1, human vasopressin V1a receptor; assay: Functional assay on human vasopressin V1a receptor expressing cell line (intracellular Ca2+ fluorescence); format: cell-based; details: 1321N1 cells, (Arg8)-vasopressin at EC80; read-out: IC50 (nM) on hV1a cell line

T1 sequence (P37288 whole entry): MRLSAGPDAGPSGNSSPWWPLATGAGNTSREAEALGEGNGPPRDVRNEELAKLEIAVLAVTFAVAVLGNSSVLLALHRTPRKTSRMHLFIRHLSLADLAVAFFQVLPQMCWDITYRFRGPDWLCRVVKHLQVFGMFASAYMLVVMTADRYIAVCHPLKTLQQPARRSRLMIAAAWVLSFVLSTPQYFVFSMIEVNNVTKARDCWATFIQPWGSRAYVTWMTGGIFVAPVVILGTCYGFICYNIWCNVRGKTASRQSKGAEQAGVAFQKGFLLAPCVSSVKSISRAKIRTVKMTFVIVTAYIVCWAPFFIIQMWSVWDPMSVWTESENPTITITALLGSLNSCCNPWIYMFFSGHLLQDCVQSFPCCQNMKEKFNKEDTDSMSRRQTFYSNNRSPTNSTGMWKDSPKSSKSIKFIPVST

## Clc1ccc2c(c1)C[C@@H](N1CCCC1)Cc1nnc([C@H]3CC[C@H](Oc4ccccn4)CC3)n1-2 [Example 174, (5R)-8-chloro-1-[trans-4-pyridin-2-loxcyclohexyl]-5-(pyrrolidin-1-yl)-5,6-dihydro-4H-[1,2,4]triazolo[4,3-a][1]benzazepine]
[1]
  Ki: 0.7 nM
[2]
  IC50: 3 nM

## COC1Cc2cc(Cl)ccc2-n2c(nnc2C2CCN([C@H]3CCOC3)CC2)C1 (stereo partly drawn) [Example 175, 8-chloro-5-methoxy-1-{1-[(3S)-tetrahydrofuran-3-yl]piperidin-4-yl}-5,6-dihydro-4H-[1,2,4]triazolo[4,3-a][1]benzazepine]
[1]
  Ki: 50.5 nM
[2]
  IC50: 323 nM

## COC1Cc2cc(Cl)ccc2-n2c(nnc2C2CCN([C@@H]3CCOC3)CC2)C1 (stereo partly drawn) [Example 178, 8-chloro-5-methoxy-1-{1-[(3R)-tetrahydrofuran-3-yl]piperidin-4-yl}-5,6-dihydro-4H-[1,2,4]triazolo[4,3-a][1]benzazepine]
[1]
  Ki: 3.9 nM
[2]
  IC50: 19 nM

## CN(C)CCC(=O)N[C@@H]1Cc2cc(Cl)ccc2-n2c(nnc2[C@H]2CC[C@H](Oc3ccccn3)CC2)C1 [Example 179, N-{(5R)-8-chloro-1-[trans-4-(pyridin-2-yloxy)cyclohexyl]-5,6-dihydro-4H-[1,2,4]triazolo[4,3-a][1]benzazepin-5-yl}-N^3,N^3-dimethyl-β-alaninamide]
[1]
  Ki: 0.2 nM
[2]
  IC50: 1.4 nM

## O=C(N[C@@H]1Cc2cc(Cl)ccc2-n2c(nnc2[C@H]2CC[C@H](Oc3ccccn3)CC2)C1)C1CCOCC1 [Example 180, N-{(5R)-8-chloro-1-[trans-4-(pyridin-2-yloxy)cyclohexyl]-5,6-dihydro-4H-[1,2,4]triazolo[4,3-a][1]benzazepin-5-yl}tetrahydro-2H-pyran-4-carboxamide]
[1]
  Ki: 1.1 nM
[2]
  IC50: 4.1 nM

## OC1Cc2cc(Cl)ccc2-n2c(nnc2N2CCC(Oc3ccccn3)CC2)C1 (stereo not drawn) [Example 181, 8-chloro-1-[4-(pyridin-2-yloxy)piperidin-1-yl]-5,6-dihydro-4H-[1,2,4]triazolo[4,3-a][1]benzazepin-5-ol]
[1]
  Ki: 0.5 nM
[2]
  IC50: 1.8 nM

## COC1Cc2cc(Cl)ccc2-n2c(nnc2[C@H]2CC[C@H](N3CCN(C)CC3)CC2)C1 (stereo partly drawn) [Example 182, 8-chloro-5-methoxy-1-[trans-4-(4-methylpiperazin-1-yl)cyclohexyl]-5,6-dihydro-4H-[1,2,4]triazolo[4,3-a][1]benzazepine]
[1]
  Ki: 19 nM
[2]
  IC50: 416 nM

## COC1Cc2cc(Cl)ccc2-n2c(nnc2[C@H]2CC[C@@H](N3CCN(C)CC3)CC2)C1 (stereo partly drawn) [Example 183, 8-chloro-5-methoxy-1-[cis-4-(4-methylpiperazin-1-yl)cyclohexyl]-5,6-dihydro-4H-[1,2,4]triazolo[4,3-a][1]benzazepine]
[1]
  Ki: 102 nM
[2]
  IC50: 2120 nM

## COC1Cc2cc(Cl)ccc2-n2c(nnc2C2CCN(Cc3cccnc3)C2)C1 (stereo not drawn) [Example 184, 8-chloro-5-methoxy-1-[1-(pyridin-3-ylmethyl)pyrrolidin-3-yl]-5,6-dihydro-4H-[1,2,4]triazolo[4,3-a][1]benzazepine]
[1]
  Ki: 0.6 nM
[2]
  IC50: 25 nM

## COC1Cc2cc(Cl)ccc2-n2c(nnc2C2CCN(Cc3ccccn3)C2)C1 (stereo not drawn) [Example 185, 8-chloro-5-methoxy-1-[1-(pyridin-2-ylmethyl)pyrrolidin-3-yl]-5,6-dihydro-4H-[1,2,4]triazolo[4,3-a][1]benzazepine]
[1]
  Ki: 4.1 nM
[2]
  IC50: 19 nM

## N#CCC(=O)N[C@@H]1Cc2cc(Cl)ccc2-n2c(nnc2[C@H]2CC[C@H](Oc3ccccn3)CC2)C1 [Example 186, N-(5R)-8-chloro-1-[trans-4-(pyridin-2-yloxy)cyclohexyl]-5,6-dihydro-4H-[1,2,4]triazolo[4,3-a][1]benzazepin-5-yl-2-cyanoacetamide]
[1]
  Ki: 0.4 nM
[2]
  IC50: 1.2 nM

## COC1Cc2cc(Cl)ccc2-n2c(nnc2C2CCN(C(=O)c3cccnc3)C2)C1 (stereo not drawn) [Example 187, [3-(8-chloro-5-methoxy-5,6-dihydro-4H-[1,2,4]triazolo[4,3-a][1]benzazepin-1-yl)pyrrolidin-1-yl](pyridin-3-yl)methanone]
[1]
  Ki: 86 nM
[2]
  IC50: 4750 nM

## Clc1ccc2c(c1)CC1(Cc3nnc(C4CCN([C@@H]5CCOC5)CC4)n3-2)OCCO1 [Example 188, 8′-chloro-1′-{1-[(3R)tetrahydrofuran-3-yl]piperidin-4-yl}-4′H,6′H-spiro[1,3-dioxolane-2,5′-[1,2,4]triazolo[4,3-a][1]benzazepine]]
[1]
  Ki: 0.5 nM
[2]
  IC50: 5.3 nM

## COC1Cc2cc(Cl)ccc2-n2c(nnc2C2CCN(C(=O)c3ccccn3)C2)C1 (stereo not drawn) [Example 189, [3-(8-chloro-5-methoxy-5,6-dihydro-4H-[1,2,4]triazolo[4,3-a][1]benzazepin-1-yl)pyrrolidin-1-yl](pyridin-2-yl)methanone]
[1]
  Ki: 10 nM
[2]
  IC50: 229 nM

## CN(C)[C@H]1CC[C@H](c2nnc3n2-c2ccc(Cl)cc2CC2(C3)OCCO2)CC1 [Example 190, Trans-4-(8′-chloro-4′H,6′H-spiro[1,3-dioxolane-2,5′-[1,2,4]triazolo[4,3-a][1]benzazepin]-1′-yl)-N,N-dimethylcyclohexanamine]
[1]
  Ki: 5.3 nM
[2]
  IC50: 105 nM

## COC1Cc2cc(Cl)ccc2-n2c(nnc2N2CCC3(CC2)OCc2ccccc23)C1 (stereo not drawn) [Example 191, 8-chloro-5-methoxy-1-(1′H,3H-spiro[2-benzofuran-1,4′-piperidin]-1′-yl)-5,6-dihydro-4H-[1,2,4]triazolo[4,3-a][1]benzazepine]
[1]
  Ki: 0.3 nM
[2]
  IC50: 2.9 nM

## COC1Cc2cc(Cl)ccc2-n2c(nnc2N2CCN(c3ncccc3Cl)CC2)C1 (stereo not drawn) [Example 192, 8-chloro-1-[4-(3-chloropyridin-2-yl)piperazin-1-yl]-5-methoxy-5,6-dihydro-4H-[1,2,4]triazolo[4,3-a][1]benzazepine]
[1]
  Ki: 0.8 nM
[2]
  IC50: 6.3 nM

## Clc1ccc2c(c1)CC1(Cc3nnc([C@H]4CC[C@H](Nc5ccccn5)CC4)n3-2)OCCO1 [Example 193, N-[trans-4-(8′-chloro-4′H,6′H-spiro[1,3-dioxolane-2,5′-[1,2,4]triazolo[4,3-a][1]benzazepin]-1′-yl)cyclohexyl]pyridin-2-amine]
[1]
  Ki: 0.1 nM
[2]
  IC50: 0.9 nM

## CN(C)CCN[C@@H]1Cc2cc(Cl)ccc2-n2c(nnc2[C@H]2CC[C@H](Oc3ccccn3)CC2)C1 [Example 194, N′-{(5R)-8-chloro-1-[trans-4-(pyridin-2-yloxy)cyclohexyl]-5,6-dihydro-4H-[1,2,4]triazolo[4,3-a][1]benzazepin-5-yl}-N,N-dimethylethane-1,2-diamine]
[1]
  Ki: 1.1 nM
[2]
  IC50: 22 nM

## CC(=O)OC1Cc2cc(Cl)ccc2-n2c(nnc2[C@H]2CC[C@H](Oc3ccccn3)CC2)C1 (stereo partly drawn) [Example 195, 8-chloro-1-[trans-4-(pyridin-2-yloxy)cyclohexyl]-5,6-dihydro-4H-[1,2,4]triazolo[4,3-a][1]benzazepin-5-yl acetate]
[1]
  Ki: 0.3 nM
[2]
  IC50: 1.6 nM

## OCCN[C@@H]1Cc2cc(Cl)ccc2-n2c(nnc2[C@H]2CC[C@H](Oc3ccccn3)CC2)C1 [Example 196, 2-({(5R)-8-chloro-1-[trans-4-(pyridin-2-yloxy)cyclohexyl]-5,6-dihydro-4H-[1,2,4]triazolo[4,3-a][1]benzazepin-5-yl}amino)ethanol]
[1]
  Ki: 0.5 nM
[2]
  IC50: 2.7 nM

## COC1Cc2cc(Cl)ccc2-n2c(nnc2N2CCC(Oc3ccccn3)CC2)C1 (stereo not drawn) [Example 197, 8-chloro-5-methoxy-1-[4-(pyridin-2-yloxy)piperidin-1-yl]-5,6-dihydro-4H-[1,2,4]triazolo[4,3a][1]benzazepine]
[1]
  Ki: 0.3 nM
[2]
  IC50: 4.1 nM

## Clc1ccc2c(c1)C[C@H](NCC1CC1)Cc1nnc([C@H]3CC[C@H](Oc4ccccn4)CC3)n1-2 [Example 199]
[1]
  Ki: 2.2 nM
[2]
  IC50: 23 nM

## CN1CCC(C(=O)N[C@H]2Cc3cc(Cl)ccc3-n3c(nnc3[C@H]3CC[C@H](Oc4ccccn4)CC3)C2)CC1 [Example 200]
[1]
  Ki: 114 nM
[2]
  IC50: 1190 nM

## O=C(N[C@H]1Cc2cc(Cl)ccc2-n2c(nnc2[C@H]2CC[C@H](Oc3ccccn3)CC2)C1)C(F)(F)F [Example 201]
[1]
  Ki: 3.9 nM
[2]
  IC50: 19 nM

## COCCOC1Cc2cc(Cl)ccc2-n2c(nnc2[C@H]2CC[C@H](Oc3ccccn3)CC2)C1 (stereo partly drawn) [Example 202, 8-chloro-5-(2-methoxyethoxy)-1-[trans-4-(pyridin-2-yloxy)cyclohexyl]-5,6-dihydro-4H-[1,2,4]triazolo[4,3-a][1]benzazepine]
[1]
  Ki: 0.4 nM
[2]
  IC50: 1 nM

## FC1Cc2cc(Cl)ccc2-n2c(nnc2[C@H]2CC[C@H](Oc3ccccn3)CC2)C1 (stereo partly drawn) [Example 206, 8-chloro-5-fluoro-1-[trans-4-(pyridin-2-yloxy)cyclohexyl]-5,6-dihydro-4H-[1,2,4]triazolo[4,3-a][1]benzazepine]
[1]
  Ki: 0.2 nM
[2]
  IC50: 0.9 nM

## CS(=O)(=O)CCOC1Cc2cc(Cl)ccc2-n2c(nnc2[C@H]2CC[C@H](Oc3ccccn3)CC2)C1 (stereo partly drawn) [Example 207, 8-chloro-5-[2-(methylsulfonyl)ethoxy]-1-[trans-4-(pyridin-2-yloxy)cyclohexyl]-5,6-dihydro-4H-[1,2,4]triazolo[4,3-a][1]benzazepine]
[1]
  Ki: 0.3 nM
[2]
  IC50: 4.2 nM

## O/N=C1/Cc2cc(Cl)ccc2-n2c(nnc2[C@H]2CC[C@H](Oc3ccccn3)CC2)C1 [Example 208, 8-chloro-N-hydroxy-1-[trans-4-(pyridin-2-yloxy)cyclohexyl]-4H-[1,2,4]triazolo[4,3-a][1]benzazepin-5(6H)-imine]
[1]
  Ki: 0.1 nM
[2]
  IC50: 2.2 nM

## C#CCN(C)[C@H]1Cc2cc(Cl)ccc2-n2c(nnc2[C@H]2CC[C@H](Oc3ccccn3)CC2)C1 [Example 209, (5S)-8-chloro-N-methyl-N-(prop-2-yn-1-yl)-1-[trans-4-(pyridin-2-yloxy)cyclohexyl]-5,6-dihydro-4H-[1,2,4]triazolo[4,3-a][1]benzazepin-5-amine]
[1]
  Ki: 0.2 nM
[2]
  IC50: 1.6 nM

Reference: US11298363B2, “Triazolobenzazepines as vasopressin V1a receptor antagonists” (RICHTER GEDEON NYRT., priority 2017, dated 2022)
